Data on one compound can be found in EP2792683A1, “Compounds potentiating the activity of antifungal drugs” (Fundacion MEDINA. Centro de Excelencia en Investigacion de …, priority 2013, dated 2014).

This assay deals with C. albicans. Nature of the assay: Cell viability by membrane integrity, propidium iodide (PI) flow cytometry. The class given is cell-based. The procedure: • Figure 1. Checkerboard assay showing the potentiation of the antifungal caspofungin by the compound MDN-0018. In this assay, dose response curves of the compound MDN-0018 (8 to 0.015 µg/mL) are performed from left to right and dose response curves of caspofungin (0.24 to 0.018 µg/mL) are performed from top to bottom. Other known antifungal compounds (echinocandins, azoles and polyenes) were tested, obtaining a similar checkboard. […] Determination of the potentiation of caspofungin activity by the compound MDN-0018 against A. fumigatus. Study of the optimum concentration of the compounds MDN-0018 and caspofungin where maximum enhancement of caspofungin is reached is shown in Figure 2.1. In addition, the graphic representation of curves, in duplicate, of the caspofungin potentiated by the compound MDN-0018 is shown in Figure 2.1. Each curve represents a curve of caspofungin from 0.24 to 0.018 µg/mL ([…]) with set concentrations of the MDN-0018 compound from 8 to 0.015 µg/mL (8.86 to 0.017 µM). • Figure 3. Flow cytometry experiments to determine cellular viability by changes in membrane permeability using propidium iodide (PI) as probe. […]
Cell viability was determined by changes in membrane permeability, live cells with intact membranes are distinguished by their ability to exclude dyes that easily penetrate dead or damaged cells. […]
For orientation: In flow cytometry, cells or beads pass a laser one at a time.

Consider `CC[C@H](C)C[C@H](C)CCCCCCCCC(=O)N[C@H]1C[C@@H](O)[C@@H](NCCN)NC(=O)[C@@H]2[C@@H](O)CCN2C(=O)[C@H]([C@H](O)CCN)NC(=O)[C@H]([C@H](O)[C@@H](O)c2ccc(O)cc2)NC(=O)[C@@H]2C[C@@H](O)CN2C(=O)[C@H]([C@@H](C)O)NC1=O` [caspofungin], for which the “cellular viability by changes in membrane permeability (PI), flow cytometry profile” value (1 µg/mL of caspofungin) was “damaged population” and the “cellular viability by changes in membrane permeability (PI), flow cytometry profile” value (sublethal dose of caspofungin (0.015 µg/mL)) is given as “same profile as the non treated cells”.
